Experimental data published in patent publication US11234988B2, “Fluorohydroxyproline derivatives useful in the preparation of proteolysis targeted chimeras” (UNIVERSITY OF DUNDEE, priority 2016, dated 2022).
pKd: −log10 of the molar value.

How the values were obtained:
VBC complex = VBC complex (Homo sapiens, UniProt P40337); assay: Isothermal titration calorimetry (ITC) of VHL ligands against VBC; assay type: binding; conditions: FIG. 3
Experimental: ITC Data on the Binding of VHL Ligands 14b and 14d
Titrations were performed on an ITC200 micro-calorimeter (GE Healthcare). Compounds 14b and 14d were diluted from a DMSO stock solution to 0.6 mM in a 20 mM HEPES, 150 mM NaCl, 1 mM TCEP (pH 7) buffer. The compound was titrated against 60 μM VBC complex, equilibrated in the same buffer. Total amount of DMSO in the buffer was 3%. The data were fitted to a single binding site model to obtain the stoichiometry n, the dissociation constant Kd and the enthalpy of binding ΔH using the Microcal LLC ITC200 Origin software provided by the manufacturer.

VHL = VHL (Homo sapiens, UniProt P40337); conditions: as reported in Galdeano et al. 2014 and Zengerle et al. 2015; cited from earlier work
Chain of VHL (P40337 54-213 limits assumed): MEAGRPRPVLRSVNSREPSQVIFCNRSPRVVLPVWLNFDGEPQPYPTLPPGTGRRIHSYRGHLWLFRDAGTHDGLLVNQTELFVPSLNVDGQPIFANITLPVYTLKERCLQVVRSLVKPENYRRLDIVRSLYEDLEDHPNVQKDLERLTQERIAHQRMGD
Chain of VHL (Q15370 1-104 partner limits assumed): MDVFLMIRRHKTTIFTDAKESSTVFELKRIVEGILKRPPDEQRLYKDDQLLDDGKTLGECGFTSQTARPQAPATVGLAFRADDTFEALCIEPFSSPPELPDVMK
Chain of VHL (Q15369 17-112 partner limits assumed): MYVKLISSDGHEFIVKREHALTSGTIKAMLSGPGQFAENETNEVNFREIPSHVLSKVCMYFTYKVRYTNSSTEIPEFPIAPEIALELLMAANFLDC

BRD4 = conditions: Zengerle et al. 2015; cited from earlier work

Chain of VBC complex (P40337 54-213 limits assumed): as the sequence (P40337 54-213 limits assumed) above
Chain of VBC complex (Q15370 1-104 partner limits assumed): as the sequence (Q15370 1-104 partner limits assumed) above
Chain of VBC complex (Q15369 17-112 partner limits assumed): as the sequence (Q15369 17-112 partner limits assumed) above

| SMILES | pKd (VBC complex) | ΔH (VBC complex) [kcal/mol] | ΔS (VBC complex) [cal/mol/deg] | binding to VHL (VHL) | removal of BRD4 over BRD2 and BRD3 (BRD4) |
| --- | --- | --- | --- | --- | --- |
| CC(=O)N[C@H](C(=O)N1C[C@H](O)[C@H](F)[C@H]1C(=O)NCc1ccc(-c2scnc2C)cc1)C(C)(C)C [Compound 14b] | 6.63 | -6.566 | 8.30 | – | – |
| CC(=O)N[C@H](C(=O)N1C[C@H](O)[C@@H](F)[C@H]1C(=O)NCc1ccc(-c2scnc2C)cc1)C(C)(C)C [Compound 14d] | 6.63 | -6.566 | 8.30 | – | – |
| Cc1ncsc1-c1ccc(CNC(=O)[C@@H]2C[C@@H](O)CN2C(=O)[C@@H](NC(=O)COCCOCCOCCNC(=O)C[C@@H]2N=C(c3ccc(Cl)cc3)c3c(sc(C)c3C)-n3c(C)nnc32)C(C)(C)C)cc1 [MZ1, (2S,4R)-1-((S)-2-(tert-butyl)-17-((S)-4-(4-chlorophenyl)-2,3,9-trimethyl-6H-thieno[3,2-f][1,2,4]triazolo[4,3-a][1,4]diazepin-6-yl)-4,16-dioxo-6,9,12-trioxa-3,15-diazaheptadecanoyl)-4-hydroxy-N-(4-(4-methylthiazol-5-yl)benzyl)pyrrolidine-2-carboxamide] | – | – | – | found to bind VHL | potently and rapidly induce reversible, long-lasting and unexpectedly selective removal of BRD4 over BRD2 and BRD3 |
| Cc1ncsc1-c1ccc(CNC(=O)[C@@H]2C[C@H](O)CN2C(=O)[C@@H](NC(=O)COCCOCCOCCNC(=O)C[C@@H]2N=C(c3ccc(Cl)cc3)c3c(sc(C)c3C)-n3c(C)nnc32)C(C)(C)C)cc1 [cisMZ1, (2S,4S)-1-((S)-2-(tert-butyl)-17-((S)-4-(4-chlorophenyl)-2,3,9-trimethyl-6H-thieno[3,2-f][1,2,4]triazolo[4,3-a][1,4]diazepin-6-yl)-4,16-dioxo-6,9,12-trioxa-3,15-diazaheptadecanoyl)-4-hydroxy-N-(4-(4-methylthiazol-5-yl)benzyl)pyrrolidine-2-carboxamide] | – | – | – | did not exhibit any measureable binding affinity for VHL | – |
